Columns and labels:
Assay type in all cases: in vivo
[1] = tested on: Stellaria media (STEME); assay: B2 Post-Emergence Efficacy - Test 2; details: 15 days after application, 0-100 scale
In short: (§1)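 Pots of plants grown 12 days in a glasshouse (24/18 or 20/16 °C day/night, 16 h light, 65% humidity) were sprayed post-emergence with aqueous IF50-formulated compound plus 0.2% v/v Genapol X080. Damage scored 15 days after application on a 0–100 scale (0 = no damage, 100 = total kill).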

[2] = tested on: Orysa sativa (ORYSA); assay: B2 Post-Emergence Efficacy - Test 2; details: 15 days after application; for Herbicidal activity ORYSA: 0-100 scale; for Herbicidal activity on a 0-100 scale, ORYSA: 0=no damage, 100=total kill
In short: as §1

[3] = tested on: Galium aparine (GALAP); assay: B2 Post-Emergence Efficacy - Test 2; details: 15 days after application, 0-100 scale
In short: as §1

[4] = tested on: Chenopodium album (CHEAL); assay: B2 Post-Emergence Efficacy - Test 2; details: 15 days after application, 0-100 scale
In short: as §1

[5] = tested on: Euphorbia hetrophylla (EPHHL); assay: B2 Post-Emergence Efficacy - Test 2; details: 15 days after application, 0-100 scale
In short: as §1

[6] = tested on: Setaria faberi (SETFA); assay: B2 Post-Emergence Efficacy - Test 2; details: 15 days after application, 0=no damage, 100=total kill
In short: as §1

[7] = tested on: Eleisine indica (ELEIN); assay: B2 Post-Emergence Efficacy - Test 2; details: 15 days after application, 0=no damage, 100=total kill
In short: as §1

[8] = tested on: Veronica persica (VERPE); assay: B2 Post-Emergence Efficacy - Test 2; details: 15 days after application, 0-100 scale
In short: as §1

[9] = tested on: Zea mays (ZEAMX); assay: B2 Post-Emergence Efficacy - Test 2; details: 15 days after application; for Herbicidal activity ZEAMX: 0-100 scale; for Herbicidal activity on a 0-100 scale, ZEAMX: 0=no damage, 100=total kill
In short: as §1

[10] = tested on: Echinochloa crus galli (ECHCG); assay: B2 Post-Emergence Efficacy - Test 2; details: 15 days after application, 0=no damage, 100=total kill
In short: as §1

[11] = tested on: Panicum miliaceum (PANMI); assay: B2 Post-Emergence Efficacy - Test 2; details: 15 days after application, 0=no damage, 100=total kill
In short: as §1

[12] = tested on: Amaranthus retoflexus (AMARE); assay: B1 Post-Emergence Efficacy - Test 1; details: 1000 g/ha, after 13 days, five point scale
In short: (§2)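 Applied rate was 1000 g/ha, sprayed onto 8-day-old potted plants in aqueous acetone (50:50) with 0.5% Tween 20. Injury was recorded 13 days later as percentage damage converted to a 1–5 score.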

[13] = tested on: Echinochloa crus-galli (ECHCG); assay: B1 Post-Emergence Efficacy - Test 1; details: 1000 g/ha, after 13 days, five point scale
In short: as §2

[14] = tested on: Solanum nigrum (SOLNI); assay: B1 Post-Emergence Efficacy - Test 1; details: 1000 g/ha, after 13 days, five point scale
In short: as §2

[15] = tested on: Lolium perenne (LOLPE); assay: B1 Post-Emergence Efficacy - Test 1; details: 1000 g/ha, after 13 days, five point scale
In short: as §2

[16] = tested on: Setaria faberi (SETFA); assay: B1 Post-Emergence Efficacy - Test 1; details: 1000 g/ha, after 13 days, five point scale
In short: as §2

[17] = tested on: Ipomoea hederacea (IPOHE); assay: B1 Post-Emergence Efficacy - Test 1; details: 1000 g/ha, after 13 days, five point scale
In short: as §2

Cc1nn(C)c(=O)c(-c2c(F)ccc(Cl)c2CCc2ccc(F)cc2)c1O [Compound 1.048, 4-[3-chloro-6-fluoro-2-[2-(4-fluorophenyl)ethyl]phenyl]-5-hydroxy-2,6-dimethyl-pyridazin-3-one]
Herbicidal activity STEME ([1]; 15 g/Ha): 90 | Herbicidal activity STEME ([1]; 30 g/Ha): 90 | Herbicidal activity STEME ([1]; 60 g/Ha): 90 | Herbicidal activity STEME ([1]; 125 g/Ha): 100 | Herbicidal activity STEME ([1]; 250 g/Ha): 100 | Herbicidal activity STEME ([1]; 500 g/Ha): 100 | Herbicidal activity ORYSA ([2]; 15 g/Ha): 0 | Herbicidal activity on a 0-100 scale, ORYSA ([2]; 15 g/Ha): 0 | Herbicidal activity ORYSA ([2]; 30 g/Ha): 0 | Herbicidal activity on a 0-100 scale, ORYSA ([2]; 30 g/Ha): 0 | Herbicidal activity ORYSA ([2]; 60 g/Ha): 0 | Herbicidal activity on a 0-100 scale, ORYSA ([2]; 60 g/Ha): 0 | Herbicidal activity ORYSA ([2]; 125 g/Ha): 0 | Herbicidal activity on a 0-100 scale, ORYSA ([2]; 125 g/Ha): 0 | Herbicidal activity ORYSA ([2]; 250 g/Ha): 10 | Herbicidal activity on a 0-100 scale, ORYSA ([2]; 250 g/Ha): 10 | Herbicidal activity ORYSA ([2]; 500 g/Ha): 30 | Herbicidal activity on a 0-100 scale, ORYSA ([2]; 500 g/Ha): 30 | Herbicidal activity GALAP ([3]; 15 g/Ha): 20 | Herbicidal activity GALAP ([3]; 30 g/Ha): 30 | Herbicidal activity GALAP ([3]; 60 g/Ha): 50 | Herbicidal activity GALAP ([3]; 125 g/Ha): 60 | Herbicidal activity GALAP ([3]; 250 g/Ha): 60 | Herbicidal activity GALAP ([3]; 500 g/Ha): 80 | Herbicidal activity CHEAL ([4]; 125 g/Ha): 70 | Herbicidal activity CHEAL ([4]; 250 g/Ha): 90 | Herbicidal activity CHEAL ([4]; 500 g/Ha): 100 | Herbicidal activity EPHHL ([5]; 15 g/Ha): 50 | Herbicidal activity EPHHL ([5]; 30 g/Ha): 70 | Herbicidal activity EPHHL ([5]; 60 g/Ha): 90 | Herbicidal activity EPHHL ([5]; 125 g/Ha): 90 | Herbicidal activity EPHHL ([5]; 250 g/Ha): 100 | Herbicidal activity EPHHL ([5]; 500 g/Ha): 100 | Herbicidal activity on a 0-100 scale, SETFA ([6]; 15 g/Ha): 0 | Herbicidal activity on a 0-100 scale, SETFA ([6]; 30 g/Ha): 40 | Herbicidal activity on a 0-100 scale, SETFA ([6]; 60 g/Ha): 40 | Herbicidal activity on a 0-100 scale, SETFA ([6]; 125 g/Ha): 70 | Herbicidal activity on a 0-100 scale, SETFA ([6]; 250 g/Ha): 80 | Herbicidal activity on a 0-100 scale, SETFA ([6]; 500 g/Ha): 100 | Herbicidal activity on a 0-100 scale, ELEIN ([7]; 15 g/Ha): 0 | Herbicidal activity on a 0-100 scale, ELEIN ([7]; 30 g/Ha): 50 | Herbicidal activity on a 0-100 scale, ELEIN ([7]; 60 g/Ha): 60 | Herbicidal activity on a 0-100 scale, ELEIN ([7]; 125 g/Ha): 60 | Herbicidal activity on a 0-100 scale, ELEIN ([7]; 250 g/Ha): 80 | Herbicidal activity on a 0-100 scale, ELEIN ([7]; 500 g/Ha): 80 | Herbicidal activity VERPE ([8]; 15 g/Ha): 60 | Herbicidal activity VERPE ([8]; 30 g/Ha): 80 | Herbicidal activity VERPE ([8]; 60 g/Ha): 90 | Herbicidal activity VERPE ([8]; 125 g/Ha): 80 | Herbicidal activity VERPE ([8]; 250 g/Ha): 100 | Herbicidal activity VERPE ([8]; 500 g/Ha): 100 | Herbicidal activity ZEAMX ([9]; 15 g/Ha): 0 | Herbicidal activity on a 0-100 scale, ZEAMX ([9]; 15 g/Ha): 0 | Herbicidal activity ZEAMX ([9]; 30 g/Ha): 10 | Herbicidal activity on a 0-100 scale, ZEAMX ([9]; 30 g/Ha): 10 | Herbicidal activity ZEAMX ([9]; 60 g/Ha): 50 | Herbicidal activity on a 0-100 scale, ZEAMX ([9]; 60 g/Ha): 50 | Herbicidal activity ZEAMX ([9]; 125 g/Ha): 50 | Herbicidal activity on a 0-100 scale, ZEAMX ([9]; 125 g/Ha): 50 | Herbicidal activity ZEAMX ([9]; 250 g/Ha): 70 | Herbicidal activity on a 0-100 scale, ZEAMX ([9]; 250 g/Ha): 70 | Herbicidal activity ZEAMX ([9]; 500 g/Ha): 100 | Herbicidal activity on a 0-100 scale, ZEAMX ([9]; 500 g/Ha): 100 | Herbicidal activity on a 0-100 scale, ECHCG ([10]; 15 g/Ha): 60 | Herbicidal activity on a 0-100 scale, ECHCG ([10]; 30 g/Ha): 80 | Herbicidal activity on a 0-100 scale, ECHCG ([10]; 60 g/Ha): 80 | Herbicidal activity on a 0-100 scale, ECHCG ([10]; 125 g/Ha): 90 | Herbicidal activity on a 0-100 scale, ECHCG ([10]; 250 g/Ha): 90 | Herbicidal activity on a 0-100 scale, ECHCG ([10]; 500 g/Ha): 100 | Herbicidal activity on a 0-100 scale, PANMI ([11]; 15 g/Ha): 0 | Herbicidal activity on a 0-100 scale, PANMI ([11]; 30 g/Ha): 20 | Herbicidal activity on a 0-100 scale, PANMI ([11]; 60 g/Ha): 30 | Herbicidal activity on a 0-100 scale, PANMI ([11]; 125 g/Ha): 80 | Herbicidal activity on a 0-100 scale, PANMI ([11]; 250 g/Ha): 100 | Herbicidal activity on a 0-100 scale, PANMI ([11]; 500 g/Ha): 100 | percentage damage caused to the plant, AMARE [12]: 5 (5=80-100%) | percentage damage caused to the plant, ECHCG [13]: 5 (5=80-100%) | percentage damage caused to the plant, SOLNI [14]: 5 (5=80-100%) | percentage damage caused to the plant, LOLPE [15]: 5 (5=80-100%) | percentage damage caused to the plant, SETFA [16]: 5 (5=80-100%) | percentage damage caused to the plant, IPOHE [17]: 5 (5=80-100%)

Reference: patent US20230301300A1, “HERBICIDAL COMPOSITIONS” (SYNGENTA CROP PROTECTION AG, priority 2020, published 2023)
